Source: patent US9259467B2, “Mammalian receptors as targets for antibody and active vaccination therapy against mold infections” (Los Angeles Biomedical Research Institute at Harbor-UCLA …, priority 2009, dated 2016)

How the values were obtained:
Format in all cases: cell-based, human
[1] = tested on: R. oryzae germlings on endothelial cells; test: Differential fluorescence assay of adherence and endocytosis of R. oryzae germlings by endothelial cells; conditions: for Reduction of endothelial cell endocytosis of R. oryzae: phenanthroline 60 μM for 16 hours, cytochalasin D 200 nM
Description: The number of organisms endocytosed by endothelial cells or CHO cells was determined using a modification of a previously described differential fluorescence assay (Ibrahim et al., Infect Immun. 63(11):4368-4374 (1995)). Briefly, 12-mm glass coverslips in a 24-well cell culture plate were coated with fibronectin for at least 4 hours and seeded with endothelial or CHO cells until confluency. After washing twice with prewarmed HBSS, the cells were then infected with 10^5 cells of R. oryzae in RPMI 1640 medium that had been germinated for 1 hour. Following incubation for 3 hours, the cells were fixed in 3% paraformaldehyde and were stained for 1 hour with 1% Uvitex (a gift from Jay Isharani, Ciba-Geigy, Greensboro, N.C., USA), which specifically binds to the chitin of the fungal cell wall. After washing 3 times with PBS, the coverslips were mounted on a glass slide with a drop of ProLong Gold antifade reagent and sealed with nail polish. The total number of cell-associated organisms (i.e., germlings adhering to monolayer) was determined by phase-contrast microscopy. The same field was examined by epifluorescence microscopy, and the number of uninternalized germlings (which were brightly fluorescent) was determined. The number of endocytosed organisms was calculated by subtracting the number of fluorescent organisms from the total number of visible organisms. At least 400 organisms were counted in 20-40 different fields on each slide. Two slides per arm were used for each experiment, and the experiment was performed in triplicate on different days. […]
To determine the effects of chelating endothelial cell iron on interactions with R. oryzae, endothelial cells were incubated with different concentrations of phenanthroline for 16 hours. To prevent chelation of the radioisotope, ^51Cr was added to endothelial cells 24 hours prior to the addition of phenanthroline (Fratti et al., Infect Immun. 66(1):191-196 (1998)). To confirm that the effects of phenanthroline on R. oryzae-induced endocytosis by and damage of endothelial cells were due to chelation of endothelial cell iron, exogenous iron in the form of hemin was added to endothelial cells at a final concentration of 20 μM, 2 hours before phenanthroline (Fratti et al., supra). As a positive control for prevention of endocytosis, the microfilament disruptant cytochalasin D (Sigma-Aldrich) was added at a concentration of 200 nM simultaneously with R. oryzae germlings, and endocytosis was determined as above (Ibrahim et al., Infect Immun. 63(11):4368-4374 (1995)). […]

[2] = tested on: R. oryzae germlings on endothelial cells; test: 51Cr release assay of R. oryzae-induced endothelial cell damage
Description: R. oryzae-induced endothelial or CHO cell damage was quantified by using a chromium (^51Cr) release assay (Ibrahim et al., J Infect Dis. 198(7):1083-1090 (2008)). Briefly, endothelial cells or CHO cells grown in 96-well tissue culture plates containing detachable wells were incubated with 1 μCi per well of Na2^51CrO4 (ICN) in M-199 medium (for endothelial cells) or Alpha minimum Eagle's medium (for CHO cells) for 16 hours.
On the day of the experiment, the unincorporated ^51Cr was aspirated, and the wells were washed twice with warmed HBSS (Irvine Scientific). Cells were infected with fungal germlings (1.5×10^5 germinated for 1 hour) suspended in 150 μl RPMI 1640 medium (Irvine Scientific) supplemented with glutamine. Spontaneous ^51Cr release was determined by incubating endothelial or CHO cells in RPMI 1640 medium supplemented with glutamine without R. oryzae. […] The amount of ^51Cr in the aspirate and the detached well was determined by gamma counting. […] After the data were corrected for variations in the amount of tracer incorporated in each well, the percentage of specific endothelial cell release of ^51Cr was calculated by the following formula: [(experimental release×2)−(spontaneous release×2)]/[total incorporation−(spontaneous release×2)]. […]

GRP78 transcript = test: Quantification of GRP78 expression in endothelial cells by real time RT-PCR; conditions: for GRP78 expression: data not shown
Description: The transductions were performed according to the manufacturer's protocol. Briefly, 1.6×10^4 endothelial cells were seeded into 96-well plate and incubated for about 20 hours at 37° C. in a 5% CO2 incubator. Cells were infected with lentiviral particles at an MOI of 20 in the presence of 8 μg/ml polybrene (Sigma-Aldrich) overnight. The transduced cells were incubated in fresh M199 medium for 4 more days. Puromycin at 0.2 μg/ml was added to select for puromycin-resistant cell pools, which usually took approximately 10 days of incubating at 37° C. in 5% CO^2. The puromycin-resistant cells were passaged until an appropriate amount of cells was obtained for endocytosis or damage assays as above. Reduction of GRP78 expression was confirmed by using real time RT-PCR (see below).
For quantification of GRP78 expression in endothelial or CHO cells, real time RT-PCR was carried out using a Power SYBR Green Cells-to-CT kit (Applied Biosystems) to extract RNA from 2×10^4 cells. Primers to amplify GRP78 from endothelial cells and CHO cells were 5′-[…]-3′ (SEQ ID NO: 3) and 5′-[…]-3′ (SEQ ID NO: 4). Primers 5′-ACCATCTTCCAGGAGCGAG-3′ (SEQ ID NO: 5) and 5′-TAAGCAGTTGGTGGTGCAG-3′ (SEQ ID NO: 6) were used to amplify the housekeeping gene GAPDH, which was used as a control.
To study the effect of acidosis, endothelial cells exposed to different pHs, ranging from 6.8 to 7.4, were grown in MEM buffered with HEPES for 5 hours in the presence or absence of phenanthroline. Next, endothelial cells were washed twice with cold PBS, and GRP78 total expression was quantified by real-time RT-PCR. […] To study the effect of hyperosmolarity and statins on GRP78 expression, endothelial cells in MEM were incubated with 1, 4, or 8 mg/ml mannitol or 5, 20, or 40 μg/ml lovastatin for 20 hours. […] GRP78 expression, endocytosis, and damage assays were conducted as above.

GRP78 = test: Cell surface expression of GRP78 on endothelial cells by FACS; conditions: high iron levels (0, 15, or 50 μM FeCl3 tested); flow cytometry
Description: Cell surface expression of GRP78 on endothelial cells exposed to varying concentrations of FeCl3 was quantified using FACS analysis. Briefly, endothelial cells grown in 25-cm flasks were dissociated using 1.5 ml enzyme-free dissociation buffer (Invitrogen). Cells were blocked with 50% goat serum, then stained with monoclonal anti-GRP78 Ab (BD Biosciences) at 1:100 for 1 hour. Endothelial cells were counterstained with ALEXA FLUOR 488-labeled anti-mouse IgG at 1:100 for 1 hour. Endothelial cells exposed to a similar concentration of FeCl3 or glucose and stained with an isotype matching control IgG (BD Biosciences) were used as negative control. A FACSCaliber (BD) instrument equipped with an argon laser emitting at 488 nm was used for flow cytometric analysis. Fluorescence data were collected with logarithmic amplifiers. The population percent fluorescence of 5×10^3 events was calculated using CellQuest software (BD).

[3] = 15 or 50 μM FeCl3, vs no exogenous FeCl3

[Cl][Fe]([Cl])[Cl] [FeCl3]
Enhancement of R. oryzae-induced endocytosis [1, 3]: 80% | Enhancement of R. oryzae-induced endothelial cell damage [2, 3]: 80% | Increase in endothelial cell GRP78 expression (GRP78 transcript; FeCl3 at iron concentrations of DKA sera, 5 hours, vs no iron): ≤ 12 fold | Increase of surface expression of GRP78 protein (GRP78): 150%

OC[C@@H](O)[C@@H](O)[C@H](O)[C@H](O)CO [mannitol]
GRP78 expression (GRP78 transcript; mannitol 1, 4, and 8 mg/ml for 20 hours): No change in GRP78 expression

CC[C@H](C)C(=O)O[C@H]1C[C@@H](C)C=C2C=C[C@H](C)[C@H](CC[C@@H]3C[C@@H](O)CC(=O)O3)[C@H]21 [lovastatin]
GRP78 expression (GRP78 transcript; lovastatin 5, 20, or 40 μg/ml for 20 hours): No evidence of alterations in expression

c1cnc2c(c1)ccc1cccnc12 [phenanthroline]
Reduction of endothelial cell endocytosis of R. oryzae [1]: approximately 70% | R. oryzae-induced endothelial cell damage ([2]; varying concentrations of phenanthroline for 16 h, removed before assay): prevented R. oryzae-induced endothelial cell damage in a concentration-dependent manner | Endothelial cell GRP78 expression in the setting of acidosis (GRP78 transcript; pH 6.8 to 7.4, 5 hours, with phenanthroline): reversed GRP78 expression back to normal levels

C=C1[C@@H](C)[C@H]2[C@H](Cc3ccccc3)NC(=O)[C@]23[C@H](OC(C)=O)/C=C/[C@@](C)(O)C(=O)[C@@H](C)C/C=C/[C@H]3[C@@H]1O [cytochalasin D]
Reduction of endothelial cell endocytosis of R. oryzae [1]: approximately 70%

hemin [exogenous iron]
Effect on the inhibition of endocytosis caused by the iron chelator phenanthroline ([1]; hemin 20 μM added 2 hours before phenanthroline): completely reversed the inhibition of endocytosis
